Results as given in patent US10770169B2, “Method of providing a treatment to a subject based on a dynamic pathway map” (THE REGENTS OF THE UNIVERSITY OF CALIFORNIA, priority 2010, dated 2020).

Tested on: panel of 55 breast cancer cell lines
Assay: Cell growth inhibition assay (Cell Titer Glo, 72 h, 9 doses; GI50, TGI, LC50)
Assay type: cell-based, human
Details: value is the negative log10 of mol/L
[1] = AU565 cell line, censored GI50 values
[2] = BT20 cell line, censored GI50 values
[3] = BT474 cell line, censored GI50 values
[4] = BT483 cell line, censored GI50 values
[5] = CAMA1 cell line, censored GI50 values
[6] = HCC1187 cell line, censored GI50 values
[7] = HCC1428 cell line, censored GI50 values
[8] = HCC1500 cell line, censored GI50 values
[9] = HCC1954 cell line, censored GI50 values

Compound: Cc1cc(C(=O)N2CCN(c3cccc(Cl)c3)CC2)n(-c2ccccc2)n1 [XRP44X]
- GI50 [1]: 6.35
- GI50 [2]: 5.29
- GI50 [3]: 5.34
- GI50 [4]: 4.18
- GI50 [5]: 6.27
- GI50 (HCC38 cell line, censored GI50 values): 5.85
- GI50 (HCC70 cell line, censored GI50 values): 5.98
- GI50 [6]: 6.23
- GI50 [7]: 5.85
- GI50 [8]: 5.74
- GI50 (HCC1806 cell line, censored GI50 values): 5.92
- GI50 [9]: 6.30
- GI50 (HCC2185 cell line, censored GI50 values): 6.63
- GI50 (HCC3153 cell line, censored GI50 values): 5.95
- GI50 (LY2 cell line, censored GI50 values): 6.08
- GI50 (MCF7 cell line, censored GI50 values): 6.40
- GI50 (MDAMB134VI cell line, censored GI50 values): 6.21
- GI50 (MDAMB175VII cell line, censored GI50 values): 5.44
- GI50 (MDAMB361 cell line, censored GI50 values): 6.06
- GI50 (MDAMB415 cell line, censored GI50 values): 6.30
- GI50 (MDAMB436 cell line, censored GI50 values): 5.47
- GI50 (MDAMB453 cell line, censored GI50 values): 6.20
- GI50 (MDAMB468 cell line, censored GI50 values): 5.93
- GI50 (SKBR3 cell line, censored GI50 values): 5.58
- GI50 (SUM52PE cell line, censored GI50 values): 6.06
- GI50 (SUM149PT cell line, censored GI50 values): 5.63
- GI50 (SUM159PT cell line, censored GI50 values): 6.16
- GI50 (SUM1315MO2 cell line, censored GI50 values): 6.11
- GI50 (T47D cell line, censored GI50 values): 5.29
- GI50 (UACC812 cell line, censored GI50 values): 6.30
- GI50 (ZR75B cell line, censored GI50 values): 5.90
- GI50 (ZR751 cell line, censored GI50 values): 5.90
- GI50 (cell line AU565): 6.35
- GI50 (cell line BT20): 5.29
- GI50 (cell line BT474): 5.34
- GI50 (cell line BT483): 4.18
- GI50 (cell line CAMA1): 6.27
- GI50 (cell line HCC38): 5.85
- GI50 (cell line HCC70): 5.98
- GI50 (cell line HCC1187): 6.23
- GI50 (cell line HCC1419): 3.88
- GI50 (cell line HCC1428): 5.85
- GI50 (cell line HCC1500): 5.74
- GI50 (cell line HCC1806): 5.92
- GI50 (cell line HCC1937): 3.88
- GI50 (cell line HCC1954): 6.30
- GI50 (cell line HCC2185): 6.63
- GI50 (cell line HCC3153): 5.95
- GI50 (cell line LY2): 6.08
- GI50 (cell line MCF7): 6.40
- GI50 (cell line MDAMB134V): 6.21
- GI50 (cell line MDAMB175V): 5.44
- GI50 (cell line MDAMB361): 6.06
- GI50 (cell line MDAMB415): 6.30
- GI50 (cell line MDAMB436): 5.47
- GI50 (cell line MDAMB453): 6.20
- GI50 (cell line MDAMB468): 5.93
- GI50 (cell line SKBR3): 5.58
- GI50 (cell line SUM52PE): 6.06
- GI50 (cell line SUM149PT): 5.63
- GI50 (cell line SUM159PT): 6.16
- GI50 (cell line SUM1315MO): 6.11
- GI50 (cell line T47D): 5.29
- GI50 (cell line UACC812): 6.30
- GI50 (cell line ZR75B): 5.90
- GI50 (cell line ZR751): 5.90

Compound: O=C1C(Cl)=C(NCCN2CCOCC2)C(=O)c2ncccc21 [NSC 663284]
- GI50 (600MPE cell line, censored GI50 values): 5.34
- GI50 [1]: 5.81
- GI50 [2]: 5.48
- GI50 [3]: 5.56
- GI50 [4]: 6.02
- GI50 [5]: 5.58
- GI50 (HCC1143 cell line, censored GI50 values): 5.70
- GI50 [6]: 5.68
- GI50 (HCC1395 cell line, censored GI50 values): 6.16
- GI50 (HCC1419 cell line, censored GI50 values): 5.72
- GI50 [7]: 5.59
- GI50 [8]: 5.42
- GI50 (HCC1937 cell line, censored GI50 values): 6.07
- GI50 [9]: 5.22
- GI50 (cell line 600MPE): 5.34
- GI50 (cell line AU565): 5.81
- GI50 (cell line BT20): 5.48
- GI50 (cell line BT474): 5.56
- GI50 (cell line BT483): 6.02
- GI50 (cell line CAMA1): 5.58
- GI50 (cell line HCC38): 5.64
- GI50 (cell line HCC70): 5.51
- GI50 (cell line HCC1143): 5.70
- GI50 (cell line HCC1187): 5.68
- GI50 (cell line HCC1395): 6.16
- GI50 (cell line HCC1419): 5.72
- GI50 (cell line HCC1428): 5.59
- GI50 (cell line HCC1500): 5.42
- GI50 (cell line HCC1937): 6.07
- GI50 (cell line HCC1954): 5.22
- GI50 (cell line HCC2185): 5.96
- GI50 (cell line HCC3153): 5.73
- GI50 (cell line LY2): 6.27
- GI50 (cell line MCF7): 5.43
- GI50 (cell line MDAMB134V): 5.24
- GI50 (cell line MDAMB175V): 5.22
- GI50 (cell line MDAMB361): 5.14
- GI50 (cell line MDAMB415): 5.59
- GI50 (cell line MDAMB453): 5.26
- GI50 (cell line MDAMB468): 5.19
- GI50 (cell line SKBR3): 5.86
- GI50 (cell line SUM52PE): 5.61
- GI50 (cell line SUM149PT): 5.74
- GI50 (cell line SUM159PT): 5.64
- GI50 (cell line SUM185PE): 6.50
- GI50 (cell line SUM225CWN): 5.66
- GI50 (cell line SUM1315MO): 6.00
- GI50 (cell line T47D): 5.19
- GI50 (cell line UACC812): 5.43
- GI50 (cell line ZR75B): 5.26
- GI50 (cell line ZR751): 5.73
